Data on three compounds can be found in patent US4659707A, “Aminoacyl derivatives of 4,9-dihydro-10H-pyrido[3,2-b]thieno[3,2-e][1,4]diazepinone and of 4,9-dihydro-10H-pyrido[3,2-b]thieno[3,4-e][1,4]diazepinone, their preparation and pharmaceutical compositions containing them” (Dompe' Farmaceutici S.p.A., priority 1985, dated 1987).

The test system of one data set is Gastric acid secretion. Description: Gastric acid secretion in the pylorus ligated rat. The conditions noted are these: oral immediately after pylorus ligation, ligation 4 hours, read-out: Antisecretory activity ED50 (confidence limits p = 0.95). The data set is classed as in vivo, male Sprague-Dawley rats. On the procedure:
1. Gastric acid secretion in the pylorus ligated rat The method of […]., Gruenstein M., Siplet H., Gastroenterology, 5, 43 (1945) was used, slightly modified according to the following: Male Sprague-Dawley rats weighing 150±5 g fasting since 48 hours were used. Pylorus ligation was performed for 4 hours. The products under exam were administered by the oral route immediately after the ligation.

The next data set concerns Carbachole salivation. Description: Charbacole salivation in the rat. The data set is classed as in vivo, male Sprague-Dawley rats. The conditions noted are these: 1 h, oral one hour before 1 mg/kg i.p. charbacole, read-out: Carbachole salivation ED50 (confidence limits p = 0.95). The method, then:
3. Charbacole salivation in the rat The method cited by R. Turner: "Parasympatholytic Agents" in R. Turner "Screening Methods in Pharmacology" pag. 137. Academic Press. New York & London 1965, with slight changes, was used. Male Sprague-Dawley rats, average weight 150±5 g, fasted for 24 hours, were used. The salivation was induced by the intraperitoneal administration of 1 mg/kg of charbacole. The products under exam were administered orally one hour before the chollinergic stimulus.

Another data set has as its system Tremors by oxotremorine. The data set is described as follows: Oxotremorine tremors in the mouse. The data set is classed as in vivo. The conditions noted are these: oral 60 minutes before 2 mg/kg i.p. oxotremorine, read-out: Tremors by oxotremorine ED50 (confidence limits p).
A further data set relates to Stress ulcer. Description: Stress ulcer (restraint+immersion) in the rat. The data set is classed as in vivo. The conditions noted are these: po, 6 hours immersion at about 20° C., ulcer score 0 to 5, read-out: Antiulcer activity (stress ulcer) ED50 (confidence limits p = 0.95). The method, then:
2. Stress ulcer (restraint+immersion) in the rat The method described by Takagi, K., Okabes, S., Jap. J. Pharmacol., 18, 9 (1968) has been used. The animals fasted for 48 hours were immobilized in a stress cage (drilled cylindrical tube 14.5×3.5 cm) and immersed in H2 O (at a temperature of about 20° C.) up to the xiphoid process. After 6 hours immersion the animals were sacrificed in excess ether, the stomach was drawn and opened along the great curvature. The ulcers were evaluated according to a score ranging from 0 to 5 assigning: 0.5 for each small ulcera (<3 mm) or in the presence of erosions or haemorrages 1 for each great ulcer (>3 mm). The oral treatment with the reference drug pirenzepine at the doses of 12.5--25--50 mg/kg has been carried out 1 hour before the stress.

A further data set can be described thus: Acute toxicity. The conditions noted are these: mouse, in vivo; Swiss mice, oral, observation 14 days. On the procedure:
The acute toxicity was determined by administering by oral route the substances under exam to Swiss mice; average weight 20±2 g. The observation period was 14 days. 10 Animals were used for each tested dose.

On to `CN1CCN(CC(=O)N2c3cscc3C(=O)Nc3cccnc32)CC1` [Example 13, 4-[(4-Methylpiperazin-1-yl)acetyl]-4,9-dihydro-10H-pyrido[3,2-b]thieno[3,4-e][1,4]-diazepin-10-one], for which the ED50 was 12.4 mg/kg with Gastric acid secretion, more than 200 mg/kg with Carbachole salivation, more than 1000 mg/kg with Tremors by oxotremorine and 28.8 mg/kg in the data set on Stress ulcer. The compound further registered an LD50 at 336 h in “Acute toxicity” of more than 1000 mg/kg.

As to `Cc1scc2c1N(C(=O)CN1CCN(C)CC1)c1ncccc1NC2=O` [Example 14, 4-[(4-Methylpiperazin-1-yl)acetyl]-3-methyl-4,9-dihydro-10H-pyrido[3,2-b]thieno[3,4-e][1,4]-diazepin-10-one], the ED50 was 3.12 mg/kg in the data set with Gastric acid secretion, 3.36 mg/kg in the data set with Carbachole salivation, more than 10000 mg/kg with Tremors by oxotremorine and 4.43 mg/kg in the data set with Stress ulcer. Moreover, in “Acute toxicity”, the LD50 at 336 h was more than 500 mg/kg.

As for `CN1CCN(CC(=O)N2c3ccsc3C(=O)Nc3cccnc32)CC1.Cl` [Example 3, 4-[(4-Methylpiperazin-1-yl)acetyl]-4,9-dihydro-10H-pyrido[3,2-b]thieno[3,2-e][1,4]-diazepin-10-one hydrochloride], the ED50 is 27.6 mg/kg in the data set with Gastric acid secretion, more than 200 mg/kg in the data set with Carbachole salivation, more than 1000 mg/kg in the data set on Tremors by oxotremorine and 55.9 mg/kg in the data set with Stress ulcer. The same compound showed an LD50 at 336 h in “Acute toxicity” of more than 2000 mg/kg.
